In patent US20050037033A1, “Microbicidal compositions and methods and use” (priority 2003, published 2005):

Experiments:
Peptostrep anaerobius = assay: Anaerobe inhibition assay; assay type: cell-based; conditions: 1 strain, read-out: Minimum Inhibitory Concentrations (MICs)
[1] = system: Prevotella melaninogenica; assay: Anaerobe inhibition assay; assay type: cell-based; conditions: 2 strains, read-out: Minimum Inhibitory Concentrations (MICs)

Compound: Cc1cc(C2CCCCC2)n(O)c(=O)c1.NCCO [CO, 6-Cyclohexyl-1-hydroxy-4-methyl-2-(1H)-pyridone ethanolamine salt]
- MIC (Peptostrep anaerobius): 40 µg/mL
- MIC [1]: 40 µg/mL
